This data set is described as follows: Solubility of indacaterol maleate and glycopyrrolate. The class given is physicochemical. As to the method:
In a formulation it is necessary to be sure that the active pharmaceutical ingredients (API) are dissolved completely.
0.02% tween-80: […].
pH=3 0.02% tween-80: […], adjust pH to 3 with hydrochloric acid. Other solutions were similarly prepared. The percentages mentioned above are percentages by weight.

Consider `CCc1cc2c(cc1CC)CC(NC[C@H](O)c1ccc(O)c3[nH]c(=O)ccc13)C2.O=C(O)/C=C\C(=O)O` [Indacaterol Maleate, (R)-5-[2-(5,6-Diethylindan-2-ylamino)-1-hydroxyethyl]-8-hydroxy-1H-quinolin-2-one maleate], for which the Solubility is 29.52 mg/100 ml (0.02% tween-80); 29.95 mg/100 ml (Purified water); 32.17 mg/100 ml (pH = 3 0.02% tween-80); 351.46 mg/100 ml (pH = 3 2.5% SBECD solution); 539.5 mg/100 ml (pH = 3 5% SBECD solution); 31.21 mg/100 ml (pH = 3 Purified water). Further, the Solubility by setting is: (pH = 3.5 0.02% tween-80) 30.8 mg/100 ml; (pH = 3.5 Purified water) 29.97 mg/100 ml; (pH = 4 0.02% tween-80) 30.91 mg/100 ml; (pH = 4 0.5% SBECD solution) 55.523 mg/100 ml; (pH = 4 1% SBECD solution) 161.866 mg/100 ml; (pH = 4 2% SBECD solution) 211.4 mg/100 ml. In addition, the Solubility reads like this: (pH = 4 5% SBECD solution) 316 mg/100 ml; (pH = 4 Purified water) 30.82 mg/100 ml; (pH = 4.5 0.02% tween-80) 30.41 mg/100 ml; (pH = 4.5 Purified water) 30.32 mg/100 ml; (pH = 5 0.02% tween-80) 30.84 mg/100 ml; (pH = 5 Purified water) 28.98 mg/100 ml. Moreover, the “Solubility (in words)” value reads like this: (cyclodextrin added) “improved significantly”; (in purified water) “not sufficiently soluble”; (tween 80 added) “insufficient”.

Values taken from patent publication US20210386730A1 (priority 2020, published 2021).
